Laboratory results: US10633407B2, “14-membered ketolides and methods of their preparation and use” (President and Fellows of Harvard College, priority 2014, dated 2020)
Converted amounts (≈) assume the structure as drawn.

Key:
[1] = test system: K. pneumoniae MP-548 clinical; assay: CLSI broth dilution MIC determination; type: cell-based; details: Klebsiella pneumoniae, MP548CLINICAL, read-out: MIC
[2] = test system: P. aeruginosa MP-8 PAO1:mex (mex-oprM-deletion); assay: CLSI broth dilution MIC determination; type: cell-based; details: Pseudomonas aeruginosa, PAO1
[3] = test system: P. aeruginosa ATCC 27853; assay: CLSI broth dilution MIC determination; type: cell-based; details: Pseudomonas aeruginosa, ATCC27853; P. aeruginosa ATCC 27853 (MP-3); read-out: MIC
[4] = test system: K. pneumoniae MP-546 Clinical-MDR; assay: CLSI broth dilution MIC determination; type: cell-based; details: Klebsiella pneumoniae, read-out: MIC
[5] = test system: P. aeruginosa MP-7 PAO1; assay: CLSI broth dilution MIC determination; type: cell-based; details: Pseudomonas aeruginosa, read-out: MIC
[6] = test system: S. pyogenes ATCC 19615; assay: CLSI broth dilution MIC determination; type: cell-based; details: Streptococcus pyogenes, ATCC19615, S. pyogenes ATCC 19615 (MP-19); read-out: MIC
[7] = test system: S. pyogenes Macrolide-resistant; assay: CLSI broth dilution MIC determination; type: cell-based; details: Streptococcus pyogenes, S. pyogenes Macrolide-resistant (MP-625 UNT-014); read-out: MIC
[8] = test system: A. baumannii ATCC 19606; assay: CLSI broth dilution MIC determination; type: cell-based; details: Acinetobacter baumannii, ATCC19606; A. baumannii ATCC 19606 (MP-15); read-out: MIC
[9] = test system: A. baumannii MP-577 Clinical-AZT low; assay: CLSI broth dilution MIC determination; type: cell-based; details: Acinetobacter baumannii, read-out: MIC
[10] = test system: strains of B. subtilis, E. coli, S. aureus, S. pneumoniae, and H. influenzae, including several multidrug-resistant strains; assay: CLSI broth dilution MIC determination, whole panel of strains; type: cell-based; details: from MIC data, Tables B1-B13
Text: MIC data was collected for the novel macrolides that this platform has produced against over 21 unique strains of B. subtilis, E. coli, S. aureus, S. pneumoniae, and H. influenzae, including several multidrug-resistant strains, with a special focus on macrolide resistant mechanisms (vide supra). Azithromycin (Azithro) and Solithromycin (Solithro) were included as a control macrolides in many cases. CLSI standard procedures for broth dilution MIC determination were used. […] These genotypes can be constitutive or inducible.

[11] = test system: E. faecalis ATCC 29212; assay: CLSI broth dilution MIC determination; type: cell-based; details: Enterococcus faecalis, ATCC29212, E. faecalis ATCC 29212 (MP-24); read-out: MIC
[12] = test system: E. faecalis Vancomycin-resistant; assay: CLSI broth dilution MIC determination; type: cell-based; details: Enterococcus faecalis, E. faecalis Vancomycin-resistant (UNT-039); read-out: MIC
[13] = test system: K. pneumoniae ATCC 10031; assay: CLSI broth dilution MIC determination; type: cell-based; details: Klebsiella pneumoniae, ATCC10031, K. pneumoniae ATCC 10031 (MP-14); read-out: MIC
[14] = test system: S. aureus erm A genotype; assay: CLSI broth dilution MIC determination; type: cell-based; details: Staphylococcus aureus; S. aureus erm A genotype (MP-620 UNT-146); read-out: MIC
Outline: (§1)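 Method: CLSI broth dilution; endpoint: MIC. Macrolide controls azithromycin and solithromycin added in many cases.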

[15] = test system: S. pneumoniae ATCC 49619; assay: CLSI broth dilution MIC determination; type: cell-based; details: Streptococcus pneumoniae, ATCC49619, S. pneumoniae ATCC 49619 (MP-21); read-out: MIC
Outline: as §1

[16] = test system: S. aureus MRSA: USA100; assay: CLSI broth dilution MIC determination; type: cell-based; details: Staphylococcus aureus; S. aureus MRSA: USA100 (MP-618 UNT-096); read-out: MIC
Outline: as §1

[17] = test system: S. aureus (MRSA) MP-513 ST-228 cErm (Clinical-cErm); assay: CLSI broth dilution MIC determination; type: cell-based; details: Staphylococcus aureus, read-out: MIC
Outline: as §1

[18] = test system: E. coli ATCC 25922; assay: CLSI broth dilution MIC determination; type: cell-based; details: Escherichia coli, ATCC25922, E. coli ATCC 25922 (MP-4); read-out: MIC
Outline: as §1

[19] = test system: E. coli MP-541 clinical; assay: CLSI broth dilution MIC determination; type: cell-based; details: Escherichia coli, MP541CLINICAL, read-out: MIC
Outline: as §1

[20] = test system: E. coli MP-532 clinical-cErmB; assay: CLSI broth dilution MIC determination; type: cell-based; details: Escherichia coli
Outline: as §1

[21] = test system: S. aureus MRSA: USA300; assay: CLSI broth dilution MIC determination; type: cell-based; details: Staphylococcus aureus; S. aureus MRSA: USA300 (MP-549, msr(a)); read-out: MIC
Outline: as §1

[22] = test system: S. pneumoniae mef A genotype (first strain so labelled); assay: CLSI broth dilution MIC determination; type: cell-based; details: Streptococcus pneumoniae, first strain (MP-626 UNT-038)
Outline: as §1

[23] = test system: S. aureus USA600, GISA; assay: CLSI broth dilution MIC determination; type: cell-based; details: Staphylococcus aureus; S. aureus USA600, GISA (MP-619 UNT-120); read-out: MIC
Outline: as §1

[24] = test system: S. aureus ATCC 29213; assay: CLSI broth dilution MIC determination; type: cell-based; details: Staphylococcus aureus, ATCC29213; S. aureus ATCC 29213 (MP-12); read-out: MIC
Outline: as §1

[25] = test system: S. aureus MP-17 ATCCBAA-977 (BAA 977 iErm); assay: CLSI broth dilution MIC determination; type: cell-based; details: Staphylococcus aureus; S. aureus MP-17, ATCCBAA-977, iErm; read-out: MIC
Outline: as §1

[26] = test system: E. coli MP-9 ATCC25922:tolC; assay: CLSI broth dilution MIC determination; type: cell-based; details: Escherichia coli, ATCC25922
Outline: as §1

[27] = test system: S. pneumoniae mef A genotype (second strain so labelled); assay: CLSI broth dilution MIC determination; type: cell-based; details: Streptococcus pneumoniae, second strain (MP-627 UNT-039), read-out: MIC
Outline: as §1

[28] = test system: A. baumannii MP-576 Clinical-MDR; assay: CLSI broth dilution MIC determination; type: cell-based; details: Acinetobacter baumannii, read-out: MIC
[29] = from C=C(C(=O)[C@H](C)C[C@@](C)(OC)[C@H](O[C@@H]1O[C@H](C)C[C@H](N(C)C)[C@H]1OC(=O)OC)[C@@H](C)C1=C(C)C(=O)OC(C)(C)O1)[C@H]1N(CCCCN=[N+]=[N-])C(=O)O[C@]1(C)[C@H](O)CC; ester bond; chlorobenzene; 1.0 mM; 150.0 °C; 16.0 h

## CC[C@H]1OC(=O)[C@@](C)(F)C(=O)[C@H](C)[C@@H](O[C@@H]2OC(C)CC(N(C)C)C2O)[C@](C)(OC)C[C@@H](C)C(=O)[C@H](C)[C@H]2N(CC#CCn3cc(-c4cccc(N)n4)nn3)C(=O)O[C@]12C (some centres unmarked) [FSM-100573]
[1]
  MIC: 32 µg/mL (≈ 38 µM)
[2]
  MIC: 4 µg/mL (≈ 4.75 µM)
[3]
  MIC: 16 µg/mL (≈ 19 µM)
[4]
  MIC: 64 µg/mL (≈ 76 µM)
[5]
  MIC: 32 µg/mL (≈ 38 µM)
[6]
  MIC: < 0.03 µg/mL
[7]
  MIC: < 0.03 µg/mL
[8]
  MIC: 2 µg/mL (≈ 2.38 µM)
[9]
  MIC: 16 µg/mL (≈ 19 µM)
[10]
  potency compared with solithromycin: even more potent
[11]
  MIC: < 0.03 µg/mL
[12]
  MIC: 1 µg/mL (≈ 1.19 µM)
[13]
  MIC: 2 µg/mL (≈ 2.38 µM)
[14]
  MIC: 16 µg/mL (≈ 19 µM)
[15]
  MIC: < 0.03 µg/mL
[16]
  MIC: 16 µg/mL (≈ 19 µM)
[17]
  MIC: 16 µg/mL (≈ 19 µM)
[18]
  MIC: 8 µg/mL (≈ 9.5 µM)
[19]
  MIC: 16 µg/mL (≈ 19 µM)
[20]
  MIC: 64 µg/mL (≈ 76 µM)
[21]
  MIC: 0.06 µg/mL (≈ 0.0713 µM)
[22]
  MIC: < 0.03 µg/mL
[23]
  MIC: 16 µg/mL (≈ 19 µM)
[24]
  MIC: 0.06 µg/mL (≈ 0.0713 µM)
[25]
  MIC: 0.06 µg/mL (≈ 0.0713 µM)
[26]
  MIC: 2 µg/mL (≈ 2.38 µM)
[27]
  MIC: < 0.03 µg/mL
[28]
  MIC: 64 µg/mL (≈ 76 µM)

## C=C1C(=O)[C@H](C)C[C@@](C)(OC)[C@H](O[C@@H]2O[C@H](C)C[C@H](N(C)C)[C@H]2OC(=O)OC)[C@@H](C)C(=O)C(C)C(=O)O[C@H](CC)[C@@]2(C)OC(=O)N(CCCCN=[N+]=[N-])[C@H]12 (some centres unmarked)
[29]
  ring closure, yield of all isomers: 23%
